As a reminder, the Ki is a dissociation constant, usually derived from enzyme kinetics or from competition with a known ligand. Low values mean tighter binding, high ones weaker binding.

The results in this text go back to patent US6492377B1, “Imidazotriazolopyrimidines with adenosine-antagonistic activity” (Boehringer Ingelheim Pharma KG, priority 1998, dated 2002).

Assay [1] addresses T1, human A3-adenosine receptor (Homo sapiens, UniProt P0DMS8).
T1 sequence (P0DMS8 1-318): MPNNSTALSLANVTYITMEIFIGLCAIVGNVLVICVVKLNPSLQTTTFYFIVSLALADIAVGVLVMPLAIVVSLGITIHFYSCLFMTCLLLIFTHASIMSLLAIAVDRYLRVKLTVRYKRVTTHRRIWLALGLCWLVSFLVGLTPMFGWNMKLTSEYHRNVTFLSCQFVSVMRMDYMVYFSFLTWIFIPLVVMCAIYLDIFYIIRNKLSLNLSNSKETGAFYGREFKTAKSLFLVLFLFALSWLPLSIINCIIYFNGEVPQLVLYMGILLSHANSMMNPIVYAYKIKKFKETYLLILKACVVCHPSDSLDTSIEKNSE
Kind of assay: KiA3 (human) receptor binding. Here is the method:
The A3 receptor binding values given hereinafter were determined analogously to […]. “Molecular cloning and characterization of the human A3-adenosine receptor” (Proc. Natl. Acad. Sci. USA 90, 10365-10369, 1993).

Assay [2] concerns the target T2, human A1 adenosine Receptor (Homo sapiens, UniProt P30542).
T2 sequence (P30542 1-326): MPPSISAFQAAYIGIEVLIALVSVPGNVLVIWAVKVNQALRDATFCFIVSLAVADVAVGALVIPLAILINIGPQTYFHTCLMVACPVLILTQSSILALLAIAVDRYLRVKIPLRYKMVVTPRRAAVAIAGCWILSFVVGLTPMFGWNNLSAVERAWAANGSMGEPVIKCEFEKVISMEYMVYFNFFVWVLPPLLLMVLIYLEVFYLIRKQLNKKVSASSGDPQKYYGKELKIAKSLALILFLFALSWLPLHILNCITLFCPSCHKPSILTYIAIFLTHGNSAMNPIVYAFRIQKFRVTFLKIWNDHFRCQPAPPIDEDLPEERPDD
As to the kind of experiment: KiA1 (human) receptor binding. On the procedure:
The receptor binding values described hereinafter were determined analogously to Ensinger et al. in “Cloning and functional characterisation of human A1 adenosine Receptor—Biochemical and Biophysical Communications, Vol 187, No. 2, 919-926, 1992”.
The Table which follows contains KiA1 (human) receptor binding values.

“4-Ethyl-7-methyl-2-(2-phenylethyl)-imidazo[4.5-e]-s-triazolo[1.5-a]pyrimidin-5-one [Example 81]”: the affinity in assay [1] corresponds to a Ki of 7.2 nM.

In assay [2], “4-Ethyl-2-(2-phenylethyl)-7-n-propyl-imidazo[4.5-e]-s-triazolo[1.5-a]pyrimidin-5-one [Example 83]” returned a Ki of 8.1 nM.
